Measured values published in US20050043307A1, “Pyridazine, pyrimidine and pyrazine ethyne compounds” (priority 1999, published 2005).

Row | SMILES | melting point [°C]
1 | CC(C)(O)C#Cc1nccs1 [Example 2, 2-Methyl-4-(1,3-thiazol-2-yl)-3-butyn-2-ol] | 69 to 70
2 | Clc1cncc(C#Cc2nccs2)c1 [Example 6, 3-Chloro-5-(1,3-thiazol-2-ylethynyl)pyridine] | 124 to 125
